Results published in patent publication US20170102375A1, “METHODS FOR DETERMINING THE EFFECTS OF COMPOUNDS ON JAK/STAT ACTIVITY” (Nodality, Inc., priority 2009, published 2017).
Read-outs that look alike come from different tables or passages of the source. Values belong to the compound of their own block, whether it stands above or below them.

Assays:
p-STAT5 in T cells = experiment: multiparameter phosphoflow, p-STAT5 in T cells gated from 90% whole blood; format: cell-based
Description: A dose series of treatments is performed for each compound, ranging from doses as low as no compound, up to doses in the ranges of 1×10° nM, 1×10^1 nM, 1×10^2 nM, 1×10^3 nM, and 1×10^4 nM. Cell signaling is measured by multiparametric phosphoflow cytometry to assess p-Stat3, pERK, and p-Stat5 levels. The samples are gated on cell populations. This method may be used, for example, to measure JAK/STAT signaling activity in gated T cells based on levels p-Stat5 (See FIG. 12). The relationship between dosing and signaling activity can be used to calculate the IC50 for each compound (See, e.g. FIG. 12).

[1] = system: G-CSF-induced p-Stat readout; experiment: G-CSF-induced JAK/STAT signaling in AML patient cells, phosphoflow p-Stat1, p-Stat3, p-Stat5; format: cell-based, human
Description: (§1) Cells from three patients were stimulated with the cytokines IL-27 and G-CSF to determine whether these modulators could induce JAK/STAT pathway activation across cells from different AML patient donors. IL-27 has been reported to signal through JAK1, JAK2, and Tyk2, leading to the phosphorylation of Stat1, Stat3, and Stat5. G-CSF has been reported to signal through JAK2 and Tyk2 and leads to the phosphorylation of Stat3. […] One hour after incubation, the cells were stimulated with IL-27 and G-CSF. After stimulation cell signaling was measured by multiparametric phosphoflow cytometry to assess p-Stat1, p-Stat3 and p-Stat5 levels.
(§2) The samples were gated on cell populations. Incubation with fluorochrome-conjugated monoclonal antibodies that recognize lineage specific epitopes on the cell surface delineated at least 3 cell subpopulations in patient samples. […] Three cell subsets were examined: (1) CD34−/CD117med, (2) CD34+/CD117med, (3) CD34−/CD117−. “CD117” in FIG. 18 is the same as “ckit” in FIG. 19. “Med” indicates a medium amount of expression with respect to other cell subsets that express more or less CD117.

[2] = system: IL-27-induced p-Stat readout; experiment: IL-27-induced JAK/STAT signaling in AML patient cells, phosphoflow p-Stat1, p-Stat3, p-Stat5; format: cell-based, human
Description: as §1, §2

pAKT (S473) = experiment: phosphoflow, evoked pAKT (S473) in B-cells gated from PBMC sample, IC50 from sub-sampled cells; format: cell-based; details: repeated 100 times, read-out: log10(IC50) (converted)
Description: In some embodiments, the invention provides tools for making robust measurements of very small subpopulations of cells. […] The IC50 for […] was calculated using pAKT measurements from 3,000 cells. […] The median fluorescence index (MFI) was then computed only from these cells and used to estimate the IC50 value. This process was repeated 100 times at each sampling level to generate a list of IC50 values. If a small number of cells is sufficiently representative of the larger population, all the IC50 values are expected to be similar to each other, and therefore the 95% confidence interval will remain small. […] For samples of 40 cells and fewer, the IC50 became increasingly inconsistent. Depending on experimental conditions, such as cell type, nodes assayed, the percentage of cells that respond to the modulator, detection methods, and the strength of the signal, the minimal number of cells needed to obtain statistically relevant measurements may vary.

p-ERK in monocytes = experiment: multiparameter phosphoflow, p-ERK stimulated by GM-CSF in monocytes from PBMCs; format: cell-based; details: treated PBMCs, off-target ERK/MAPK (FIG. 16)
Description: (§3) (See FIG. 11; Table 7). […] The samples are gated on cell populations.
(§4) As shown in FIGS. 16-17, the methods of the invention can also be used to identify off-target effects of drug treatment. Muliparameter phosphoflow is used to detect the effects of compounds selected from the list in Table 8 on signaling pathways other than JAK/STAT. In FIG. 16, when PBMCs are treated with the JAK/STAT inhibitor Pyridone 6 (“Jak Inhibitor I,” Calbiochem), pERK levels are reduced in monocytes. […] Thus, the methods of the invention can identify both inhibition and induction of off-target signaling pathways, in this example, the ERK/MAPK pathway. The methods of the invention can also be used to identify off-target effects of JAK/STAT inhibitors on other pathways.

p-ERK in B cells = experiment: multiparameter phosphoflow, p-ERK stimulated by CD40L in B-cells from PBMCs; format: cell-based; details: treated PBMCs, off-target ERK/MAPK (FIG. 16)
Description: as §3, §4

pNFkB65 = experiment: multiparameter phosphoflow, NFkB signaling in stimulated B cells; format: cell-based; details: stimulated B cells (FIG. 17)
Description: as §4

CML patients = CML patients treated at the early stages of the disease; cited from earlier work

Structure (SMILES): C[C@@H]1CCN(C(=O)CC#N)C[C@@H]1N(C)c1ncnc2[nH]ccc12 [CP-690550]
potency in whole blood (p-STAT5 in T cells; 90% whole blood gated on T cells): retains a high potency | inhibition of G-CSF-induced p-Stat readout ([1]; 3333 nM, 1 h pre-incubation, cells of two AML patient donors with G-CSF-induced signaling): completely | inhibition of basal phosphorylation levels in the p-Stat readout ([1]; AML patient cells, G-CSF experiment (FIG. 21)): no inhibition | inhibition of IL-27-induced p-Stat readout ([2]; 333 nM, 1 h pre-incubation, cells of two AML patient donors with IL-27-induced signaling): completely | effect in cells from the third patient ([2]; AML patient cells in which IL-27 and G-CSF induced no signaling response): no effect | inhibition of basal phosphorylation levels in the p-Stat readout ([2]; AML patient cells, IL-27 experiment (FIG. 20)): no inhibition

IC50 (pAKT (S473); simulation: 10 cells sampled): 4.79 nM | IC50 (pAKT (S473); simulation: 20 cells sampled): 79.4 nM | IC50 (pAKT (S473); simulation: 40 cells sampled): 61.7 nM | IC50 (pAKT (S473); simulation: 80 cells sampled): 479 nM | IC50 (pAKT (S473); simulation: 160 cells sampled): 479 nM | IC50 (pAKT (S473); simulation: 320 cells sampled): 490 nM | IC50 (pAKT (S473); simulation: 640 cells sampled): 490 nM | IC50 (pAKT (S473); simulation: 1280 cells sampled): 479 nM | IC50 (pAKT (S473); simulation: 2560 cells sampled): 490 nM | IC50 (pAKT (S473); simulation: MFI from 5 cells sampled from 3,000 cell data set): 0.302 nM
Structure (SMILES): O=c1cc(N2CCOCC2)oc2c(-c3ccccc3)cccc12 [LY940002]

Structure (SMILES): CC(C)(C)c1nc2c3cc[nH]c(=O)c3c3cc(F)ccc3c2[nH]1 [Pyridone 6]
effect on pERK levels in monocytes (p-ERK in monocytes): reduced | decrease of potency in whole blood versus PBMCs (p-STAT5 in T cells; 90% whole blood gated on T cells vs stimulated PBMCs): 70 fold | effect on pERK levels in B cells (p-ERK in B cells): does not reduce

Structure (SMILES): CCOC(=O)c1cn(-c2c(F)c(F)c(C#N)c(F)c2F)c2c(F)c(F)c(F)cc2c1=O [Stat3 Inhibitor VII]
effect on NFkB signaling, levels of pNFkB65 (pNFkB65): inhibits NFkB signaling

Structure (SMILES): CC(C)(O)/C=C/C(=O)[C@](C)(O)[C@H]1[C@H](O)C[C@@]2(C)[C@@H]3CC=C4[C@@H](C=C(O)C(=O)C4(C)C)[C@]3(C)C(=O)C[C@]12C [cucurbitacin I]
effect on pERK levels in monocytes (p-ERK in monocytes): increased | effect on pERK levels in B cells (p-ERK in B cells): increased

Structure (SMILES): Cc1ccc(NC(=O)c2ccc(CN3CCN(C)CC3)cc2)cc1Nc1nccc(-c2cccnc2)n1 [imatinib]
complete remission, patients (CML patients): 97%
